Experimental data: PMC4861708 (Frontiers in Cell and Developmental Biology, 2016)
≈ marks a conversion by molar mass, not a printed value. Where a SMILES comes first, the peptide text is derived from it. [ ]: non-standard residue; d: D form. The star is where a group is joined. Orn(α-tetramethylguanidino) = CN(C)C(=N[C@@H](CCCN)C(=O)*)N(C)C; Orn = NCCC[C@H](N)C(=O)O

Legend:
P. aeruginosa DSM 1117 = test: Transmission electron microscopy, morphological changes; type: cell-based, Pseudomonas aeruginosa; details: 1 h
Procedure: Peptide-bacteria mixtures were fixed (2% glutaraldehyde, 5 mmol/L CaCl2, 10 mmol/L MgCl2 in 0.1 mol/L sodium cacodylate buffer, pH 7.4) overnight at 4°C. […] Samples were rinsed with distilled water (5 × 10 min), incubated with aqueous uranylacetate (0.5% w/v) for 1 h at 4°C, washed with distilled water (3 × 10 min), and embedded in Epon. The hardened blocks were sectioned (50 nm) on a UCT ultramicrotome (Leica, Vienna, Austria), stained with uranyl acetate and lead citrate on an AC20 system (Leica), and visualized at a Tecnai 12 electron microscope (FEI, Eindhoven, The Netherlands) at 80 kV. Morphological effects were quantified on average for 25 cells per condition.

in vitro = type: cell-based, human; details: human
Procedure: (§1) Human embryonic kidney (HEK293) and HeLa cells were cultured in Dulbecco's modified Eagle's/Ham's F-12 medium [DMEM/F-12 (1:1)] supplemented with FBS (10% v/v), penicillin, and streptomycin (1000 units each). Primary rat cardiomyocytes (Innoprot, Elexalde Derio, Spain) were grown in medium supplemented with FBS (20% v/v), horse serum (5% v/v), L-glutamine (2 mmol/L), sodium pyruvate (2 mmol/L), MEM non-essential amino acids (Gibco, 0.1 mmol/L), penicillin, and streptomycin (1000 units each). Surfaces for cardiomyocyte growth were coated with attachment factor first. Cells (20,000/well) were seeded into a 96-well plate (PS, sterile, flat bottom), incubated for 24 h (37°C, 5% CO2), and washed twice with PBS (100 μl/well) prior to adding colorless medium (88 μL) and peptide solution (12 μL; 5, 2.5, 1.25, […], and 0.625 g/L in PBS). Positive controls were triton X-100 (1%, v/v) and melittin (60 mg/L) as lytic peptide, whereas PBS (12%, v/v) served as negative control. After an incubation period of 24 h, supernatant (25 μL) was mixed with lactate dehydrogenase (LDH) substrate (175 μL; 0.57 mmol/L sodium pyruvate, 0.24 mmol/L NADH disodium salt, 32 mmol/L potassium dihydrogen phosphate, 66 mmol/L dipotassium phosphate) in 96-well plates (PS, sterile, flat bottom). Absorbance was recorded at 340 nm every 3 min for 30 min on the Paradigm microplate reader. Due to the total release of LDH upon triton X-100 treatment, the control contained high LDH concentrations resulting in a fast substrate turnover that was only linear for the first 6 min.
(§2) The MTT cell viability assay relied on the same cell culture. Remaining medium was replaced by a mixture of fresh colorless medium (100 μL) and MTT (10 μL; 5 g/L in PBS) and incubated for 4 h (37°C, 5% CO2). A solution of sodium dodecyl sulfate (100 μL; 10%, w/v) dissolved in hydrochloric acid (10 mmol/L) was added, incubated (16 h), and the absorbance recorded at 590 nm relative to the reference at 650 nm (Paradigm microplate reader). The relative cell viability was calculated by [(ODPeptide − ODTriton)/(ODPBS − ODTriton)] × 100% and half-maximal inhibitory concentrations (IC50) with an Excel-template from cell biology protocols (www.sciencegateway.org/ protocols/cellbio/drug/hcic50.htm). For statistical analysis an unpaired t-test was applied using GraphPad Prism 5.0.

[1] = test system: K. pneumoniae DSM 681 (ATCC 10031); type: cell-based, Klebsiella pneumoniae; details: DSM 681, 24 h
Procedure: MICs of P. aeruginosa strains DSM 1117 (ATCC 27853), DSM 3227 (ATCC 19429), and DSM 9644 were determined in a microdilution broth assay using 50 or 100% MHB (11.5 and 23 g/L MHB, respectively) whereas MICs of E. coli DSM 1103 (ATCC 25922) and K. pneumoniae DSM 681 (ATCC 10031) were determined in TSB (30 g/L TSB). Peptides (1 g/L in water) were serially two-fold diluted in a 96-well microtiter plate (PS, sterile, flat bottom) in 50 μL of the corresponding medium to final concentrations of 512–4 μg/mL. Bacteria were grown in nutrient broth overnight and diluted to a cell concentration of 1.5 × 10^7 cells/mL in the corresponding medium. Cell densities were determined by using the McFarland standard as reference. An aliquot (50 μL) of the cell culture was added to each well and incubated (37°C, 24 h). The OD595 was determined in a SpectraMax 340PC (Molecular Devices, Sunnyvale, USA). Additionally, MIC values were also determined for high bacteria densities (5 × 10^8 cells/mL) corresponding to the conditions used for TEM, as described above.

HEK293 cells = test: in vitro; type: cell-based, human; details: 24 h
Procedure: as §1, §2

HeLa cells = test: in vitro; type: cell-based; details: 24 h
Procedure: as §1, §2

## CC[C@H](C)[C@H](NC(=O)[C@H](Cc1ccc(O)cc1)NC(=O)[C@@H](NC(=O)[C@@H]1CCCN1C(=O)[C@H](CCCNC(=N)N)NC(=O)[C@H](CC(N)=O)NC(=O)[C@H](CC(N)=O)NC(=O)[C@H](CCCN)N=C(N(C)C)N(C)C)C(C)C)C(=O)N1CCC[C@H]1C(=O)N[C@@H](CCCNC(=N)N)C(=O)N1CCC[C@H]1C(=O)N[C@@H](CCCNC(=N)N)C(=O)N1CCC[C@H]1C(=O)N1CCC[C@H]1C(=O)N[C@@H](Cc1c[nH]cn1)C(=O)N1CCC[C@H]1C(=O)N[C@@H](CCCNC(=N)N)C(=O)N[C@@H](CC(C)C)C(=O)O [Api137, gu-ONNRPVYIPRPRPPHPRL-OH, reference compound] ({Orn(α-tetramethylguanidino)}-NNRPVYIPRPRPPHPRL-OH)
P. aeruginosa DSM 1117; 32 µg/mL
  Cells spongy: 0%
  DNA/ribosomes relocalization: +++, extremely relocalized: 0%
  DNA/ribosomes relocalization: +, starting: 43%
  DNA/ribosomes relocalization: -, no: 40%
  Membrane: b, broken: 0%
  Membrane: i, intact: 100%
  Membrane: r, ruptured: 0%
  Ribosome clustering: +++, extremely clustered: 0%
  Ribosome clustering: ++, clustered: 0%
  Ribosome clustering: +, starting: 63%
  Ribosome clustering: -, no: 37%
  Vesicle release: 43%
  dissociated Fragments: ++, long and thin: 0%
  dissociated Fragments: -, no: 87%
  dissociated Fragments: LV, large vesicles: 0%
P. aeruginosa DSM 1117; 128 µg/mL
  Cells spongy: 0%
  DNA/ribosomes relocalization: +++, extremely relocalized: 0%
  DNA/ribosomes relocalization: +, starting: 37%
  DNA/ribosomes relocalization: -, no: 47%
  Membrane: b, broken: 0%
  Membrane: i, intact: 100%
  Membrane: r, ruptured: 0%
  Ribosome clustering: +++, extremely clustered: 0%
  Ribosome clustering: ++, clustered: 0%
  Ribosome clustering: +, starting: 57%
  Ribosome clustering: -, no: 43%
  Vesicle release: 47%
  dissociated Fragments: ++, long and thin: 3%
  dissociated Fragments: +, small and thin: 10%
  dissociated Fragments: -, no: 87%
  dissociated Fragments: LV, large vesicles: 0%
P. aeruginosa DSM 1117; 512 µg/mL
  Cells spongy: 0%
  DNA/ribosomes relocalization: +++, extremely relocalized: 0%
  DNA/ribosomes relocalization: +, starting: 40%
  DNA/ribosomes relocalization: -, no: 47%
  Membrane: b, broken: 0%
  Membrane: i, intact: 100%
  Membrane: r, ruptured: 0%
  Ribosome clustering: +++, extremely clustered: 0%
  Ribosome clustering: ++, clustered: 0%
  Ribosome clustering: +, starting: 30%
  Ribosome clustering: -, no: 70%
  Vesicle release: 37%
  dissociated Fragments: ++, long and thin: 3%
  dissociated Fragments: +, small and thin: 0%
  dissociated Fragments: -, no: 97%
  dissociated Fragments: LV, large vesicles: 0%
In vitro
  viability at 24 h, 0.6 g/L: 83 ± 3%
[1]
  MIC K. pneumoniae DSM 681: 16 µg/mL (≈ 6.98 µM)

## CC(C)C[C@H](NC(=O)[C@H](CCCNC(=N)N)NC(=O)[C@@H]1CCCN1C(=O)[C@H](Cc1c[nH]cn1)NC(=O)[C@@H]1CCCN1C(=O)[C@@H]1CCCN1C(=O)[C@H](CCCNC(=N)N)NC(=O)[C@@H]1CCCN1C(=O)[C@H](CCCNC(=N)N)NC(=O)[C@@H]1CCCN1C(=O)[C@H](CCCN)NC(=O)[C@H](Cc1ccc(O)cc1)NC(=O)[C@@H](NC(=O)[C@@H]1CCCN1C(=O)[C@H](CCCNC(=N)N)NC(=O)[C@H](CCCN)NC(=O)[C@H](Cc1c[nH]c2ccccc12)NC(=O)[C@H](CCCN)NC(=O)[C@H](Cc1c[nH]c2ccccc12)NC(=O)[C@H](CCCN)NC(=O)[C@H](Cc1c[nH]c2ccccc12)NC(=O)[C@H](CCCN)N=C(N(C)C)N(C)C)C(C)C)C(=O)O [Api794, gu-O(WO)3RPVYOPRPRPPHPRL-OH] ({Orn(α-tetramethylguanidino)}-W[Orn]W[Orn]W[Orn]RPVY[Orn]PRPRPPHPRL-OH)
P. aeruginosa DSM 1117; 16 µg/mL
  Cells spongy: 0%
  DNA/ribosomes relocalization: +++, extremely relocalized: 0%
  DNA/ribosomes relocalization: ++, relocalized: 23%
  DNA/ribosomes relocalization: +, starting: 37%
  DNA/ribosomes relocalization: -, no: 40%
  Membrane: b, broken: 0%
  Membrane: i, intact: 100%
  Membrane: r, ruptured: 0%
  Ribosome clustering: +++, extremely clustered: 0%
  Ribosome clustering: ++, clustered: 0%
  Ribosome clustering: +, starting: 80%
  Ribosome clustering: -, no: 20%
  Vesicle release: 87%
  dissociated Fragments: +, small and thin: 10%
  dissociated Fragments: -, no: 77%
  dissociated Fragments: LV, large vesicles: 0%
P. aeruginosa DSM 1117; 64 µg/mL
  Cells spongy: 0%
  DNA/ribosomes relocalization: +++, extremely relocalized: 83%
  DNA/ribosomes relocalization: ++, relocalized: 10%
  DNA/ribosomes relocalization: +, starting: 3%
  DNA/ribosomes relocalization: -, no: 3%
  Membrane: b, broken: 80%
  Membrane: i, intact: 20%
  Membrane: r, ruptured: 47%
  Ribosome clustering: +++, extremely clustered: 73%
  Ribosome clustering: ++, clustered: 10%
  Ribosome clustering: -, no: 3%
  Vesicle release: 20%
  dissociated Fragments: ++, long and thin: 63%
  dissociated Fragments: +, small and thin: 20%
  dissociated Fragments: LV, large vesicles: 30%
P. aeruginosa DSM 1117; 256 µg/mL
  Cells spongy: 80%
  DNA/ribosomes relocalization: +++, extremely relocalized: 100%
  DNA/ribosomes relocalization: ++, relocalized: 0%
  DNA/ribosomes relocalization: +, starting: 0%
  DNA/ribosomes relocalization: -, no: 0%
  Membrane: b, broken: 67%
  Membrane: i, intact: 34%
  Membrane: r, ruptured: 67%
  Ribosome clustering: +++, extremely clustered: 100%
  Ribosome clustering: ++, clustered: 0%
  Ribosome clustering: +, starting: 0%
  Ribosome clustering: -, no: 0%
  Vesicle release: 3%
  dissociated Fragments: ++, long and thin: 80%
  dissociated Fragments: -, no: 7%
  dissociated Fragments: LV, large vesicles: 93%
P. aeruginosa DSM 1117; 512 µg/mL
  Cells spongy: 87%
  DNA/ribosomes relocalization: +++, extremely relocalized: 100%
  DNA/ribosomes relocalization: ++, relocalized: 0%
  DNA/ribosomes relocalization: +, starting: 0%
  DNA/ribosomes relocalization: -, no: 0%
  Ribosome clustering: +++, extremely clustered: 93%
  Ribosome clustering: ++, clustered: 7%
  Ribosome clustering: +, starting: 0%
  Ribosome clustering: -, no: 0%
  Vesicle release: 0%
  dissociated Fragments: ++, long and thin: 60%
  dissociated Fragments: +, small and thin: 0%
  dissociated Fragments: -, no: 40%
  dissociated Fragments: LV, large vesicles: 97%
HEK293 cells
  IC50 on cell viability: 280 ± 30 µg/mL (≈ 94.4 µM)
HeLa cells
  IC50 on cell viability: 230 ± 90 µg/mL (≈ 77.6 µM)
[1]
  MIC K. pneumoniae DSM 681: 32 µg/mL (≈ 10.8 µM)
